Experimental findings from patent US20250136606A1, “MODULATORS OF TRPML, THEIR COMPOSITIONS AND METHODS OF USE” (Caraway Therapeutics, Inc., priority 2021, published 2025) are described below.

Assay [1] has as its target TRPML1 (Homo sapiens, UniProt Q9GZU1). Put plainly: Fluorescent TRPML1 assay (Fluo4-AM calcium fluorescence in doxycycline-induced HEK-293 Trex cells). Type of assay: cell-based. Here is the method:
(§1) HEK-293 Trex cells were stably transfected with a construct consisting of the human coding sequence for TRPML1 cloned into the […] plasmid pCDNA5 T/O. Mutations were introduced into the TRPML1 sequence to facilitate expression on the cell surface (Silvia Vergarajauregui, Rosa Puertollano, Traffic. 2006 March; 7(3): 337-353). Briefly, the cells are cultured in 150 mm round tissue culture dishes containing 20 mL of media. The day before the assay the cells are rinsed with DPBS-Ca—Mg and then treated briefly with Trypsin-EDTA. The Trypsin-EDTA is diluted with growth media, and cells are counted. 38×10^6 cells are re-plated into 150 mm round tissue culture dishes in media containing 0.5 ug/mL doxycycline to induce expression of hTRPML1.
(§2) The day of the experiment cells are lifted from the plates as above and collected by centrifugation. The cells are then suspended in dye loading buffer consisting of Ringer's solution supplemented with 0.1% Pluronic Acid and 1 micromolar Fluo4-AM dye. Cells are loaded for ˜60 minutes in the dark with occasional mixing. The cells are collected by centrifugation, the loading media aspirated, and the cells resuspended in 25 mL Ringer's solution and incubated ˜60 minutes in the dark. The cells are again collected by centrifugation, rinsed in Ringer's Solution and resuspended to […] in modified Ringer's solution containing 10 mM calcium.
(§3) Compounds are dissolved to a concentration of 10 millimolar with DMSO. Compound plates are created by dispensing compounds into 384 well black wall clear bottom plates (Greiner 781091). Positive and negative controls are included on each plate. Typically, different amounts of each compound are tested ranging from 100 nanoMoles (20 micromolar final concentration) decreasing in half-log steps to 31 picoMoles (6 nanomolar final concentration). Each concentration is typically tested in triplicate.
(§4) 50 microliters of dye-loaded cells are dispensed into each well of the compound assay plate created above. The fluorescence in each well is then determined with an excitation wavelength of 480 nm and an emission wavelength of 540 nm using either a Molecular Devices SpectraMax multimode plate reader or a Hamamatsu FDSS/uCell plate imager.
(§5) The resulting fluorescence for each well is exported as an ascii file and loaded into our LIMS for analysis. The percent activity of each compound at each concentration is determined by comparison to the positive and negative control wells included in each plate.
(§6) EC50 values were calculated using a non-linear regression of Prism. In the table, “A” indicates an EC50 of less than 100 nM, “B” indicates an EC50 range from 100 nM to 500 nM; “C” indicates an EC50 range from 500 nM to 2 μM; and “D” indicates an EC50 greater than 2 μM.

Assay [2] deals with T1, TRPML3 (Homo sapiens, UniProt Q8TDD5).
T1 construct: expressed in transfected cells
T1 sequence (Q8TDD5 1-553): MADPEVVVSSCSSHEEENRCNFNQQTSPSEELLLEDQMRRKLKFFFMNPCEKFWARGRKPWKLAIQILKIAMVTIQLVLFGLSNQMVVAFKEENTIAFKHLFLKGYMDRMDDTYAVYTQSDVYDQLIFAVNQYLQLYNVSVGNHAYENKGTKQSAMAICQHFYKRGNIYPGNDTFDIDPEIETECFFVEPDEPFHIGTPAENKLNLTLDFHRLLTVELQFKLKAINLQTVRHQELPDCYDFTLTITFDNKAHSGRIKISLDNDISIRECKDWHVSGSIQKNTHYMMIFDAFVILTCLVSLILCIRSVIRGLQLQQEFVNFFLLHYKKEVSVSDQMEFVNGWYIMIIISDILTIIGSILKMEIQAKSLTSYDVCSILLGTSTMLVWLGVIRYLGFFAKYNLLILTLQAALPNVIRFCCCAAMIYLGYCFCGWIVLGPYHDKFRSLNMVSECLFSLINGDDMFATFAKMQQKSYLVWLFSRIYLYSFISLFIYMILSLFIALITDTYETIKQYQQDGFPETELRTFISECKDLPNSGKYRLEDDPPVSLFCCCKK
Put plainly: Fluorescent TRPML3 assay (performed as for TRPML1, substituting the TRPML3 subtype). It is filed as cell-based. As for the experimental part:
as §1, §2, §3, §4, §5
TRPML2 and TRPML3 Assays Assays for TRPML2 and TRPML3 were performed as above for TRPML1, by substituting the appropriate TRPML2 or TRPML3 subtype for the TRPML1.
as §6

Like-named read-outs stand apart in the source and are kept apart here.

TRPML1, sequence (Q9GZU1 whole entry L15A/L16A/L577A/L578A, form open): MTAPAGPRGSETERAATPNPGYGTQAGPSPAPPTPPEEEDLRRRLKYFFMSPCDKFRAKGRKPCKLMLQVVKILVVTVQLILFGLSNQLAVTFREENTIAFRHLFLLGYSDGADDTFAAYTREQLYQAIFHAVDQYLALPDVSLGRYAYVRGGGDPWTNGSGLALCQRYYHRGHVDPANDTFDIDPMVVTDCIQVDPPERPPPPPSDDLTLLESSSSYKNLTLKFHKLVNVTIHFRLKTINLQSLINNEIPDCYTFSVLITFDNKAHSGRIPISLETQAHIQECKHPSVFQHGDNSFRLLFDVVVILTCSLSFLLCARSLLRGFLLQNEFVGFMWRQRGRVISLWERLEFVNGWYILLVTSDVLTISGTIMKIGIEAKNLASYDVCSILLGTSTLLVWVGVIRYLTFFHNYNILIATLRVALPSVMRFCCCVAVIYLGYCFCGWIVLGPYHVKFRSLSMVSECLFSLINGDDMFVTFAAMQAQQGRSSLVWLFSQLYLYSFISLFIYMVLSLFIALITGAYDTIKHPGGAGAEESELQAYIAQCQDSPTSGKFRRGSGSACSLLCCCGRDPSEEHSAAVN

`CC(C)(C)OC(=O)N1CCN(c2ncnc3c2c(-c2ccccc2F)cn3-c2cc(C#N)ccn2)CC12CC2` [Compound 392, tert-butyl 7-(7-(4-cyanopyridin-2-yl)-5-(2-fluorophenyl)-7H-pyrrolo[2,3-d]pyrimidin-4-yl)-4,7-diazaspiro[2.5]octane-4-carboxylate]: the EC50 was 100 to 500 nM in assay [1] (fluorescent calcium assay) and below 100 nM in assay [2] (fluorescent calcium assay).

As to `C[C@@H]1CN(C(=O)OC(C)(C)C)CCN1c1ncnc2c1c(C1CC1)cn2-c1cc(C#N)ccn1` [Compound 393, tert-butyl (R)-4-(7-(4-cyanopyridin-2-yl)-5-cyclopropyl-7H-pyrrolo [2,3-d]pyrimidin-4-yl)-3-methylpiperazine-1-carboxylate], the half-maximal effective concentration (EC50) in assay [1] (fluorescent calcium assay) and in assay [2] (fluorescent calcium assay) was below 100 nM in each case.

With `C[C@@H]1CN(c2ncnc3c2c(C2CC2)cn3-c2cc(C#N)ccn2)[C@@H](C)CN1C(=O)OC(C)(C)C` [Compound 394, tert-butyl (2R,5S)-4-(7-(4-cyanopyridin-2-yl)-5-cyclopropyl-7H-pyrrolo[2,3-d]pyrimidin-4-yl)-2,5-dimethylpiperazine-1-carboxylate], the EC50 in assay [1] (fluorescent calcium assay) and in assay [2] (fluorescent calcium assay) was below 100 nM throughout.

Turning to `CC(C)(C)OC(=O)N1CCN(c2ncnc3c2c(C2CC2)cn3-c2cc(C#N)ccn2)CC1(C)C` [Compound 395, tert-butyl 4-(7-(4-cyanopyridin-2-yl)-5-cyclopropyl-7H-pyrrolo[2,3-d]pyrimidin-4-yl)-2,2-dimethylpiperazine-1-carboxylate], the EC50 in assay [1] (fluorescent calcium assay) and in assay [2] (fluorescent calcium assay) was below 100 nM throughout.

On to `CC(C)(C)OC(=O)N1CCN(c2ncnc3c2c(C2CC2)cn3-c2cc(C#N)ccn2)CC12CC2` [Compound 396, tert-butyl 7-(7-(4-cyanopyridin-2-yl)-5-cyclopropyl-7H-pyrrolo[2,3-d]pyrimidin-4-yl)-4,7-diazaspiro[2.5]octane-4-carboxylate], for which the EC50 is 100 to 500 nM in assay [1] (fluorescent calcium assay) and below 100 nM in assay [2] (fluorescent calcium assay).

As for `C[C@H]1CN(C(=O)OC(C)(C)C)CCN1c1ncnc2c1c(C1CC1)cn2-c1ncc(C#N)s1` [Compound 397, tert-butyl (S)-4-(7-(5-cyanothiazol-2-yl)-5-cyclopropyl-7H-pyrrolo[2,3-d]pyrimidin-4-yl)-3-methylpiperazine-1-carboxylate], the EC50 in assay [1] (fluorescent calcium assay) was above 2000 nM; in assay [2] (fluorescent calcium assay), 100 to 500 nM.

In the case of `CC(C)C(=O)N1CCN(c2nccc3c2c(-c2ccccc2F)cn3-c2cc(C#N)ccn2)[C@@H](C)C1` [Compound 450, (S)-2-(3-(2-fluorophenyl)-4-(4-isobutyryl-2-methylpiperazin-1-yl)-1H-pyrrolo[3,2-c]pyridin-1-yl)isonicotinonitrile], the values for the EC50 in assay [1] (fluorescent calcium assay) and in assay [2] (fluorescent calcium assay) were below 100 nM and 100 to 500 nM, respectively.

Take `CC(C)(C)OC(=O)N1CCN(c2ncnc3c2c(-c2ccccc2F)cn3-c2nccc(C#N)n2)CC1` [Compound 459]: the EC50 in assay [1] (fluorescent calcium assay) and in assay [2] (fluorescent calcium assay) was below 100 nM each time.

Take `CC(C)(C)OC(=O)N1CC2(C1)CN(c1ncnc3c1c(C1CC1)cn3-c1cc(Cl)cc(Cl)c1)C2` [Compound 464, tert-butyl 6-(5-cyclopropyl-7-(3,5-dichlorophenyl)-7H-pyrrolo[2,3-d]pyrimidin-4-yl)-2,6-diazaspiro[3.3]heptane-2-carboxylate]: the EC50 fell in the range of 500 to 2000 nM in assay [1] (fluorescent calcium assay) and 100 to 500 nM in assay [2] (fluorescent calcium assay).

As for `C[C@@H]1CN(C(=O)OC(C)(C)C)CCN1c1ncnc2c1c(C1CCOCC1)cn2-c1cc(F)cc(F)c1` [Compound 467, tert-butyl (R)-4-(7-(3,5-difluorophenyl)-5-(tetrahydro-2H-pyran-4-yl)-7H-pyrrolo[2,3-d]pyrimidin-4-yl)-3-methylpiperazine-1-carboxylate], the EC50 is above 2000 nM in assay [1] (fluorescent calcium assay) and 500 to 2000 nM in assay [2] (fluorescent calcium assay).

`C[C@H]1CN(C(=O)OC(C)(C)C)CCN1c1ncnc2c1c(C1CCOCC1)cn2-c1cccc(F)c1` [Compound 470, tert-butyl (S)-4-(7-(3-fluorophenyl)-5-(tetrahydro-2H-pyran-4-yl)-7H-pyrrolo[2,3-d]pyrimidin-4-yl)-3-methylpiperazine-1-carboxylate]: the EC50 in assay [1] (fluorescent calcium assay) and in assay [2] (fluorescent calcium assay) was 500 to 2000 nM each time.

For `C[C@@H]1CN(c2ncnc3c2c(OC2CCC2)cn3-c2cc(C#N)ccn2)[C@@H](C)CN1C(=O)OC(C)(C)C` [Compound 508, tert-butyl (2R,5S)-4-(7-(4-cyanopyridin-2-yl)-5-cyclobutoxy-7H-pyrrolo[2,3-d]pyrimidin-4-yl)-2,5-dimethylpiperazine-1-carboxylate], the EC50 in assay [1] and in assay [2] was below 100 nM throughout.

Regarding `C[C@@H]1CN(c2ncnc3c2c(C(F)(F)F)cn3-c2cc(C#N)ccn2)[C@@H](C)CN1C(=O)OC1CC1` [Compound 515, cyclopropyl (2R,5S)-4-(7-(4-cyanopyridin-2-yl)-5-(trifluoromethyl)-7H-pyrrolo[2,3-d]pyrimidin-4-yl)-2,5-dimethylpiperazine-1-carboxylate], the EC50 in assay [1] and in assay [2] was below 100 nM each time.

For `Cc1c(C(F)(F)F)c2c(N3C[C@@H](C)N(C(=O)OC(C)(C)C)C[C@@H]3C)ncnc2n1-c1cc(C#N)ccn1` [Compound 531, tert-butyl (2R,5S)-4-(7-(4-cyanopyridin-2-yl)-6-methyl-5-(trifluoromethyl)-7H-pyrrolo[2,3-d]pyrimidin-4-yl)-2,5-dimethylpiperazine-1-carboxylate], the EC50 in assay [1] and in assay [2] was 100 to 500 nM in each case.

For the molecule `C[C@@H]1CN(c2ncnc3c2c(C(F)F)cn3-c2cc(F)cc(F)c2)[C@@H](C)CN1C(=O)OC1(C)CC1` [Compound 607, 1-methylcyclopropyl (2R,5S)-4-(5-(difluoromethyl)-7-(3,5-difluorophenyl)-7H-pyrrolo[2,3-d]pyrimidin-4-yl)-2,5-dimethylpiperazine-1-carboxylate], the values for the EC50 in assay [1] and in assay [2] were 100 to 500 nM and 500 to 2000 nM, respectively.

For `C[C@@H]1CN(c2ncnc3c2c(C(F)F)cn3-c2cc(F)ccn2)[C@@H](C)CN1C(=O)OC1(C)CC1` [Compound 611, 1-methylcyclopropyl (2R,5S)-4-(5-(difluoromethyl)-7-(4-fluoropyridin-2-yl)-7H-pyrrolo[2,3-d]pyrimidin-4-yl)-2,5-dimethylpiperazine-1-carboxylate], the EC50 in assay [1] and in assay [2] was 100 to 500 nM each time.

As to `C[C@@H]1CN(c2ncnc3c2c(C(F)F)cn3-c2cc(C#N)ccn2)[C@@H](C)CN1C(=O)OC1(C)CC1` [Compound 613, 1-methylcyclopropyl (2R,5S)-4-(7-(4-cyanopyridin-2-yl)-5-(difluoromethyl)-7H-pyrrolo[2,3-d]pyrimidin-4-yl)-2,5-dimethylpiperazine-1-carboxylate], the EC50 in assay [1] and in assay [2] was below 100 nM each time.

Turning to `C[C@@H]1CN(c2ncnc3c2c(C(F)(F)F)cn3C2CCCC2)[C@@H](C)CN1C(=O)OC(C)(C)C` [Compound 626, tert-butyl (2R,5S)-4-(7-cyclopentyl-5-(trifluoromethyl)-7H-pyrrolo[2,3-d]pyrimidin-4-yl)-2,5-dimethylpiperazine-1-carboxylate], the results for the concentration giving a half-maximal response (EC50) in assay [1] and in assay [2] were below 100 nM and 500 to 2000 nM, respectively.

Regarding `C[C@@H]1CN(c2ncnc3c2c(C(F)F)cn3C2CCCC2)[C@@H](C)CN1C(=O)OC(C)(C)C` [Compound 628, tert-butyl (2R,5S)-4-(7-cyclopentyl-5-(difluoromethyl)-7H-pyrrolo[2,3-d]pyrimidin-4-yl)-2,5-dimethylpiperazine-1-carboxylate], the EC50 in assay [1] and in assay [2] was 500 to 2000 nM in each case.

What is called EC50 is the concentration that produces a half-maximal response.
